Results: patent publication US20100303727A1, “OPTICAL IMAGING AGENTS” (priority 2007, published 2010)
Like-named read-outs stand apart in the source and are kept apart here. Bridge positions count the residues as written; N and C are the ends. Peptide text beside a SMILES is read from it. * marks the point of attachment. X3 = CC[N+]1=C(/C=C/C=C/C=C2/N(CCCCCC(=O)*)c3ccc(S(=O)(=O)O)cc3C2(C)C)C(C)(C)c2cc(S(=O)(=O)[O-])ccc21; X1 = C[N+]1=C(/C=C/C=C/C=C2/N(CCCCCC(=O)*)c3ccccc3C2(C)C)C(C)(C)c2cc(S(=O)(=O)[O-])ccc21; X2 = NC(=O)COCC(=O)NCCOCCOCCOCCN*

Tests used:
[1] = assay type: in vitro ADME, mouse
Description: Mouse plasma (non-sterile) was purchased from Rockland, Pa., USA. This plasma is stabilized with heparin, sodium. The substance was dissolved in PBS and plasma, respectively, at concentrations 0.1/0.2 mg/mL. Both blank samples (solvent without peptide) and peptide dissolved in plasma/PBS were incubated at 37° C. for about 4 hours. After incubation the proteins were removed by ultrafiltration using non-sterile Ultrafree®-MC centrifuge tubes with filter insert from Millipore Co. (Amicon). The cut-off of the filters was 30,000 NMWL Prior to centrifugation the plasma samples were diluted 1:1 with water. The samples were analysed by HPLC using visible detection.
The substance was dissolved in PBS, concentration 0.1 mg/mL. The fluorescence intensity of the ultracentrifuged samples was measured using Fluoroskan Ascent® FL equipped with plate reader (Thermo Labsystems Oy, Finland). Excitation wavelength was at 646 nm and emission wavelength at 678 nm and measurements were performed at two different concentrations of the substance, 6.5 μg/mL and 23 μg/mL plasma.
The Ultimate 3000 micro liquid chromatograph equipped with UV-Vis detector was applied in this study. The solution has an intense bluish colour and absorbs well at 650 nm.
The chromatography was performed on an X-Terra RP18 column 2.1×150 mm, 3.5 μm particles from Waters using a gradient elution of acetonitrile (ACN) and phosphate buffer (20 mM, pH 7.1); 650 nm detection; flow rate 0.1 mL/min; injection volume: 5 μL. Gradient: initiated at 22% ACN in buffer, increasing linearly to 50% ACN over 12 min; rapid linear increase of gradient to 90% ACN for 2 min followed; then equilibration to the starting mixture. Total analysis time was 20 min, with a retention time for the main peak of ˜9 min. Degradation/impurities were reported as changes in purity of the main peak.

αVβ3 receptor = biological target: T1, αVβ3 receptor (Homo sapiens, UniProt P05106+P06756); test: Competition assay using 125I-echistatin on EA-Hy926 membranes; assay type: binding; details: for Ki: competition with 125I-Echistatin, EA-Hy926 membranes
T1 construct: endogenous in cells; host or cells: EA-Hy926 human endothelial cell line (membrane preparation)
Description: A classical competition assay using ^125I-echistatin was performed in order to check the affinity (Ki) of the RGD-Cy^D conjugates (Compounds 1 to 8) towards membranes expressing. the αVβ3 receptor. Ki was determined in receptor competition studies with membranes prepared from human endothelial cells. Membranes from the human endothelial adenocarcinoma cell line EA-Hy926 that express several integrins including αVβ3 were prepared and used as a receptor source. Competitive binding of ^125I-Echistatin, a known […] for several integrins including αVβ3, was carried out with varying concentrations of cold compounds.

[2] = human, plasma
collagen = assay type: binding; details: 1 h 37° C., Ex646/Em678 nm
Description: Commercially available collagen-covered 96-well plates were used (BD Biocoat, Art. code BDAA 356649, Becton, Dickinson Biosciences, Two Oak Park, Bedford, Mass. 01730). Triplicate wells were made of each test Compound at 30 nM, 100 nM or 300 nM (1000 nM included in some cases), and the plate was incubated in the plate reader for one hour at 37° C. with shaking every other minute*. The volume in each well was 200 μl. At the end of the incubation, 150 μl supernatant was transferred to an untreated 96-well plate, and the fluorescence was read with excitation at 646 nm and emission at 678 nm wavelengths.
For calculation of the degree of binding, the fluorescence from the supernatants was compared to the fluorescence from 150 μl aliquots with the same initial concentrations. In all cases, median values from 3 wells were used.

HT-29 tumour = test: In vivo optical imaging of HT-29 tumour-bearing mice; details: mean tumour region intensity divided by mean muscle region intensity, iv injection, HT-29 tumours s.c.
Description: Female BALB c/A nude (Bom) mice were used in the study. The use of the animals was approved by the local ethics committee. As the animals were immunocompromised, they were housed in individually ventilated cages (IVC, Scanbur BK) supplied with HEPA filtered air. The animals had ad libitum access to “Rat and Mouse nr. 3 Breeding” diet (Scanbur BK) and tap water acidified by addition of HCl to a molar concentration of 1 mM (pH 3.0). In order to protect the animals during handling and all procedures before the imaging procedure, they were handled under conditions of laminar HEPA filtered air.
The animals were allowed an acclimatisation period of at least 5 days before being injected s.c. with HT-29 tumour cell suspensions at two sites (shoulder and left, lower flank) with a nominal dose of 2.5-3×10^6 cells per injection in a volume of 100 μl. The s.c. injections were performed under light gas anaesthesia. […]
Image analysis was performed with custom written MATLAB software. […] The mean signal of the pixel values inside each region was calculated. The mean signal and pixel standard deviation was calculated.
Based on the in-vitro data from example 7-10, in-vivo results from compounds 1, 2, 4 and 6 are presented. Tumour enhancement is quantified by a target to background ratio (TBR) defined as the ratio of the mean tumour region intensity divided by the mean muscle region intensity.

Row | Compound | % main peak area (after 4 h incubation in mouse plasma) [1] | Ki (αVβ3 receptor) | PPB (ranking in words) [2] | Ki (in words) (αVβ3 receptor; summary of Example 10) | Collagen binding (% bound) (collagen; initial conc. 30 nM) | Collagen binding (% bound) (collagen; initial conc. 100 nM) | Collagen binding (% bound) (collagen; initial conc. 300 nM) | Collagen binding (% bound) (collagen; initial conc. 1000 nM) | Target to background ratio (TBR) (HT-29 tumour)
1 | CC1(C)C(/C=C/C=C/C=C2/N(CCCS(=O)(=O)O)c3ccc(S(=O)(=O)O)cc3C2(C)CCCCCC(=O)NCCCC[C@@H]2NC(=O)CSC[C@@H](C(=O)NCCOCCOCCOCCNC(=O)COCC(N)=O)NC(=O)[C@H](Cc3ccccc3)NC(=O)[C@@H]3CSSC[C@H](NC2=O)C(=O)N[C@@H](CCCNC(=N)N)C(=O)NCC(=O)N[C@@H](CC(=O)O)C(=O)N3)=[N+](CCCS(=O)(=O)O)c2ccc(S(=O)(=O)O)cc21 (stereo partly drawn) [Compound 6, RGD-Alexa 647 Dye Conjugate] | 100% | 1.6 nM | lowest |  |  |  |  |  | 
2 | C[N+]1=C(/C=C/C=C/C=C2/N(CCCCCC(=O)NCCCC[C@@H]3NC(=O)CSC[C@@H](C(=O)NCCOCCOCCOCCNC(=O)COCC(N)=O)NC(=O)[C@H](Cc4ccccc4)NC(=O)[C@@H]4CSSC[C@H](NC3=O)C(=O)N[C@@H](CCCNC(=N)N)C(=O)NCC(=O)N[C@@H](CC(=O)O)C(=O)N4)c3ccccc3C2(C)C)C(C)(C)c2cc(S(=O)(=O)[O-])ccc21 [Compound 3, RGD-Cy5(1)) Dye Conjugate] ({CH2CO}-K(X1)CRGDCFC-X2; disulfide 2-6; thioether N-8) |  | 2.6 nM | highest PPB |  |  |  |  |  | 
3 | CC1(CCCCS(=O)(=O)O)C(/C=C/C=C/C=C2/N(CCCCCC(=O)NCCCC[C@@H]3NC(=O)CSC[C@@H](C(=O)NCCOCCOCCOCCNC(=O)COCC(N)=O)NC(=O)[C@H](Cc4ccccc4)NC(=O)[C@@H]4CSSC[C@H](NC3=O)C(=O)N[C@@H](CCCNC(=N)N)C(=O)NCC(=O)N[C@@H](CC(=O)O)C(=O)N4)c3ccc(S(=O)(=O)O)cc3C2(C)C)=[N+](CCCCS(=O)(=O)O)c2ccc(S(=O)(=O)O)cc21 (stereo partly drawn) [Compound 4, RGD-Cy5** Dye Conjugate] | 100% | 1.8 nM | lowest |  |  |  |  |  | 
4 | CC1(CCCCS(=O)(=O)[O-])C(/C=C/C=C/C=C2\N(CCCCS(=O)(=O)O)c3c(F)c(F)c(F)c(F)c3C2(C)CCCCS(=O)(=O)O)=[N+](CCCCCC(=O)NCCCC[C@@H]2NC(=O)CSC[C@@H](C(=O)NCCOCCOCCOCCNC(=O)COCC(N)=O)NC(=O)[C@H](Cc3ccccc3)NC(=O)[C@@H]3CSSC[C@H](NC2=O)C(=O)N[C@@H](CCCNC(=N)N)C(=O)NCC(=O)N[C@@H](CC(=O)O)C(=O)N3)c2c(F)c(F)c(F)c(F)c21 (stereo partly drawn) [Compound 7] | 70% | 7.4 nM | highest PPB | slightly higher Ki value |  |  |  |  | 
5 | CC1(CCCCS(=O)(=O)O)C(/C=C/C=C/C=C2\N(CCCCCC(=O)NCCCC[C@@H]3NC(=O)CSC[C@@H](C(=O)NCCOCCOCCOCCNC(=O)COCC(N)=O)NC(=O)[C@H](Cc4ccccc4)NC(=O)[C@@H]4CSSC[C@H](NC3=O)C(=O)N[C@@H](CCCNC(=N)N)C(=O)NCC(=O)N[C@@H](CC(=O)O)C(=O)N4)c3ccc(S(=O)(=O)O)cc3C2(C)CCCCS(=O)(=O)O)=[N+](Cc2ccccc2)c2ccc(S(=O)(=O)[O-])cc21 (stereo partly drawn) [Compound 5] | 46% |  |  |  | 83.6% | 96.1% | 50.9% | 30.4% | 
6 | CCN1\C(=C/C=C/C=C/C2=[N+](CCCCCC(=O)NCCOCCOCCOCCNC(=O)COCC(=O)NCCCC[C@@H]3NC(=O)CSC[C@@H](C(=O)NCCOCCOCCOCCNC(=O)COCC(N)=O)NC(=O)[C@H](Cc4ccccc4)NC(=O)[C@@H]4CSSC[C@H](NC3=O)C(=O)N[C@@H](CCCNC(=N)N)C(=O)NCC(=O)N[C@@H](CC(=O)O)C(=O)N4)c3ccc(S(=O)(=O)[O-])cc3C2(C)C)C(C)(C)c2cc(S(=O)(=O)O)ccc21 [Compound 8] | 93% |  |  |  | 92.1% | 85.9% | 56.7% | 32.7% | 
7 | CC[N+]1=C(/C=C/C=C/C=C2/N(CCCCCC(=O)NCCCC[C@@H]3NC(=O)CSC[C@@H](C(=O)NCCOCCOCCOCCNC(=O)COCC(N)=O)NC(=O)[C@H](Cc4ccccc4)NC(=O)[C@@H]4CSSC[C@H](NC3=O)C(=O)N[C@@H](CCCNC(=N)N)C(=O)NCC(=O)N[C@@H](CC(=O)O)C(=O)N4)c3ccc(S(=O)(=O)O)cc3C2(C)C)C(C)(C)c2cc(S(=O)(=O)[O-])ccc21 [Compound 1, RGD-[Cy5(2)] Dye Conjugate] ({CH2CO}-K(X3)CRGDCFC-X2; disulfide 2-6; thioether N-8) |  | 1.9 nM |  |  |  |  |  |  | 
8 | CC[N+]1=C(/C=C/C=C/C=C2/N(CCCCCC(=O)NCCCC[C@@H]3NC(=O)CSC[C@@H](C(=O)NCCOCCOCCOCCNC(=O)COCC(N)=O)NC(=O)[C@H](CCCNC(=N)N)NC(=O)[C@@H]4CSSC[C@H](NC3=O)C(=O)NCC(=O)N[C@@H](CC(=O)O)C(=O)N[C@@H](Cc3ccccc3)C(=O)N4)c3ccc(S(=O)(=O)O)cc3C2(C)C)C(C)(C)c2cc(S(=O)(=O)[O-])ccc21 [Compound 2, neg-RGD-[Cy5(2)] Dye Conjugate] ({CH2CO}-K(X3)CGDFCRC-X2; disulfide 2-6; thioether N-8) |  |  |  |  | 87% | 81.1% | 83% |  | 1.14
